Source: ChEMBL document CHEMBL5465560, “Selectivity Literature for EUbOPEN Chemogenomic Library” (2024)

How the values were obtained:
[1] = biological target: Bone morphogenetic protein receptor type-1A (Homo sapiens, UniProt P36894); experiment: Selectivity interaction (ProQinase) EUB0000171b BMPR1A
[2] = biological target: T1, Serine/threonine-protein kinase Nek9 (Homo sapiens) (UniProt Q8TD19); experiment: Selectivity interaction (ProQinase) EUB0000171b NEK9
T1 sequence (whole entry): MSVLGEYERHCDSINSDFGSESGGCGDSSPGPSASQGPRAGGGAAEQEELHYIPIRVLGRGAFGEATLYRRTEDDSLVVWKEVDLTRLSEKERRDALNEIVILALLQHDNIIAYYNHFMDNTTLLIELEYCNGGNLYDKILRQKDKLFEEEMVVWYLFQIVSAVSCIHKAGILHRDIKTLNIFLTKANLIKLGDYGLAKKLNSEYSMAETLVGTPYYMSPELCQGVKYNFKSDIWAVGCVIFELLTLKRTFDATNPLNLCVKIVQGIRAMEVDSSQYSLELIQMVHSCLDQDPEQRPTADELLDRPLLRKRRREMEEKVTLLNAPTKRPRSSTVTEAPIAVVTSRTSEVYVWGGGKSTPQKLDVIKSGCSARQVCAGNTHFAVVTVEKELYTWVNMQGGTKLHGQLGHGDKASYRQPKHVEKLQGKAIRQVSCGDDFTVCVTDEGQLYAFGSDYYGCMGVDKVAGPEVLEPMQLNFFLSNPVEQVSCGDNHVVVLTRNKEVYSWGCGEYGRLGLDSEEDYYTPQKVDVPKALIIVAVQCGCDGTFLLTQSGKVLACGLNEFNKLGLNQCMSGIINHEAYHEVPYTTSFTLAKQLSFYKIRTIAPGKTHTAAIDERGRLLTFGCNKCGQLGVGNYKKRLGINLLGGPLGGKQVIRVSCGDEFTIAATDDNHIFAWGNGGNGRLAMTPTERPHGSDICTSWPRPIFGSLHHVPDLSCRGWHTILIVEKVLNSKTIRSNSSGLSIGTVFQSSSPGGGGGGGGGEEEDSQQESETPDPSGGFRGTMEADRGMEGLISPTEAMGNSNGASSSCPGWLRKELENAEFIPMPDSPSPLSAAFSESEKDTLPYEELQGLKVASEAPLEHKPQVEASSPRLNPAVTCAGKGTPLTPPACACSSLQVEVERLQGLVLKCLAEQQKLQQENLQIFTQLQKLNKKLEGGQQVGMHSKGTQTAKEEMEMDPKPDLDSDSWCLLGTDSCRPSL

[3] = biological target: T2, MAP/microtubule affinity-regulating kinase 4 (Homo sapiens) (UniProt Q96L34); experiment: Selectivity interaction (ActivX KiNativ screen (kinase selectivity in THP-1 cell lysates)) EUB0000639a MARK4; assay type: subcellular; settings: lysate, at 5 µM
T2 sequence (whole entry): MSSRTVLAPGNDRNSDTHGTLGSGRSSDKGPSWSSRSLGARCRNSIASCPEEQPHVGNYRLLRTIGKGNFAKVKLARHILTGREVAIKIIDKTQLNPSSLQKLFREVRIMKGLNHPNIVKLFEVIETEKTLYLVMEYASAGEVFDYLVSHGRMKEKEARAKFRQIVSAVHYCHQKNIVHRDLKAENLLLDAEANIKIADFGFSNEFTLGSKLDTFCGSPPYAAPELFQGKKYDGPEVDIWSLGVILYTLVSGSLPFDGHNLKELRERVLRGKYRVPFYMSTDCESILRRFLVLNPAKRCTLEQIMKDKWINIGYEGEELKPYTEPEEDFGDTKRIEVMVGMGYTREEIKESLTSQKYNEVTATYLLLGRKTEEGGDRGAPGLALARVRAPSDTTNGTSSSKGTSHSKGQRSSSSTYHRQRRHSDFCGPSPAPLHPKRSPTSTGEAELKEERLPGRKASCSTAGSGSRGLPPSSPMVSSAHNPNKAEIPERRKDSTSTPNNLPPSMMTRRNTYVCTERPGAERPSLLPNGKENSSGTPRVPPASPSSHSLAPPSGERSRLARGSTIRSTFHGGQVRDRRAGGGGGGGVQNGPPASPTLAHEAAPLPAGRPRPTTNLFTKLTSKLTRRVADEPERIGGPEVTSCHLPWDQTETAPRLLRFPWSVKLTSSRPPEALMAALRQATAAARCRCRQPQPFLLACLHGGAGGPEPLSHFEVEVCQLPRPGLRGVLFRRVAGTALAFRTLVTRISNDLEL

[4] = biological target: 5'-AMP-activated protein kinase catalytic subunit alpha-1 (Homo sapiens, UniProt Q13131); experiment: Selectivity interaction (ActivX KiNativ screen (kinase selectivity in THP-1 cell lysates)) EUB0000639a PRKAA1; assay type: subcellular; settings: lysate, at 5 µM
[5] = biological target: T3, Serine/threonine-protein kinase ULK2 (Homo sapiens) (UniProt Q8IYT8); experiment: Selectivity interaction (KinomeScan (DiscoverX)) EUB0001049a ULK2; settings: at 1 µM
T3 sequence (whole entry): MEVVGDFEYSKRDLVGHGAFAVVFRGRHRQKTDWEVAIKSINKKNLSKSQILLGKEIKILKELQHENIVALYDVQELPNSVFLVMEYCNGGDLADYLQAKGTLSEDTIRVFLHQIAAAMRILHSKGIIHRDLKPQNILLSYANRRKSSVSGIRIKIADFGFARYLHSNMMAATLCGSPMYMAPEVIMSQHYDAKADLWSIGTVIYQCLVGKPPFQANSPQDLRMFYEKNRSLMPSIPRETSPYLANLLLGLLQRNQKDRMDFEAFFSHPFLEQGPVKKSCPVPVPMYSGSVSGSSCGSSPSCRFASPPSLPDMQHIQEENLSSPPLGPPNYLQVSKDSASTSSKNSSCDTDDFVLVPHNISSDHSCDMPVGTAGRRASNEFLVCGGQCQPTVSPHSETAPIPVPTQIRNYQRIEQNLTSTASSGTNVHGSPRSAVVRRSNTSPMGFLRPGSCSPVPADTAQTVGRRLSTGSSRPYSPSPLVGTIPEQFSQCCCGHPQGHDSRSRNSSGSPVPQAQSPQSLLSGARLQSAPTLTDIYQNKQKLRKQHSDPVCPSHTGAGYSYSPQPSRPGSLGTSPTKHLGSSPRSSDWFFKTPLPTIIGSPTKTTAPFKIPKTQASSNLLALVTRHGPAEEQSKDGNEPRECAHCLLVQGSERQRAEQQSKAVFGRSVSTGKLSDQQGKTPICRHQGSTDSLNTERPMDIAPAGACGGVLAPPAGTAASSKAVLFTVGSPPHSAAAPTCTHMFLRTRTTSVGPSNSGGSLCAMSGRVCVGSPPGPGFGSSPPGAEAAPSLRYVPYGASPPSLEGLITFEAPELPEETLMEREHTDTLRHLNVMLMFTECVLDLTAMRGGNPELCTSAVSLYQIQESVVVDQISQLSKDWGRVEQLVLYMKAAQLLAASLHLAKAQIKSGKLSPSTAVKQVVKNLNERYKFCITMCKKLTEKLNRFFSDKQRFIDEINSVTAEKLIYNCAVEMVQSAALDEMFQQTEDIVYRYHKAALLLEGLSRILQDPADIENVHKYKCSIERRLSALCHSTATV

Sequence of Bone morphogenetic protein receptor type-1A (P36894 whole entry): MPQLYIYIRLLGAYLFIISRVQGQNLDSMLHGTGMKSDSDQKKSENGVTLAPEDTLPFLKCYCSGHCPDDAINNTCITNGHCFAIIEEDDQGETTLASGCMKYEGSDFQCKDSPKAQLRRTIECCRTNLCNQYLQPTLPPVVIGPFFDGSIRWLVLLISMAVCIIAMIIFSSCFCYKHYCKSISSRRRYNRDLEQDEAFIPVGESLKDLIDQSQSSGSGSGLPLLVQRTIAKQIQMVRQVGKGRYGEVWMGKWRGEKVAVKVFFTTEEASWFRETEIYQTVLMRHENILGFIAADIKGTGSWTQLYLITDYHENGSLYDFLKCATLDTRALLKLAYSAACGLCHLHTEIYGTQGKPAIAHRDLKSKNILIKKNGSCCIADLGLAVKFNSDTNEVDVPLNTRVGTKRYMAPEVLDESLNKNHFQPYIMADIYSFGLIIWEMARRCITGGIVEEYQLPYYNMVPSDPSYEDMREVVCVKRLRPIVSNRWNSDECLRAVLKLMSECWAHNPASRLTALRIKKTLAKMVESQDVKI
Sequence of 5'-AMP-activated protein kinase catalytic subunit alpha-1 (Q13131 whole entry, looked up): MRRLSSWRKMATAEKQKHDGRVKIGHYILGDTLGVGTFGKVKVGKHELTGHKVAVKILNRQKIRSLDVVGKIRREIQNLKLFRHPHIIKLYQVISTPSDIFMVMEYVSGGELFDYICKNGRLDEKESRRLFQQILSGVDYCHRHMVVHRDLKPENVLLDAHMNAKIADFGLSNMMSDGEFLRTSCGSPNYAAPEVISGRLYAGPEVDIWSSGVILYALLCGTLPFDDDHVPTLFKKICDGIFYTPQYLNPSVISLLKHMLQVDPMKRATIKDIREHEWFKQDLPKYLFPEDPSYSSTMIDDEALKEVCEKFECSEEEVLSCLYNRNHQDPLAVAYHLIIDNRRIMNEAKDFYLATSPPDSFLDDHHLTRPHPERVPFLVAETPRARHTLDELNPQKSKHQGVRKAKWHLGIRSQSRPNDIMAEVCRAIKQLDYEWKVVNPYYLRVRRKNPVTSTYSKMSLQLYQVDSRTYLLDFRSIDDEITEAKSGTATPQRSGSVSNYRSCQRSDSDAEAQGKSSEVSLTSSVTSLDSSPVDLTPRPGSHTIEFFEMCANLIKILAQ

## C=CC(=O)Nc1cccc(C(=O)Nc2ccc(Nc3cc(-c4[nH]c(SC)nc4C)ccn3)cc2)c1
[1]; at 1 µM
  % of control: 83%
[1]; at 5 µM
  % of control: 88%
[2]; at 1 µM
  % of control: 97%
[2]; at 5 µM
  % of control: 73%

## CC[C@@H]1[C@H](F)C(=O)N[C@@H]1COc1nccc2cc(C(N)=O)c(OC)cc12 [ZIMLOVISERTIB]
[3]
  % of inhibition: 27.1%
[4]
  % of inhibition: 18.6%

## COc1cc(Nc2nc(C)cc(-c3cnn4nc(OC)ccc34)n2)cc(C(F)(F)F)c1
[5]
  % of control: 92%
